We go through ten molecules from patent US11850247B2, “Antiviral compounds” (REGENTS OF THE UNIVERSITY OF MINNESOTA, priority 2020, dated 2023).

One data set concerns HIV-1. In words: Anti-HIV-1 activity in TZM-GFP cells (viral LTR-activated GFP expression). The settings on record: for inhibition at 2 µM: Human immunodeficiency virus 1, 2 μM compound; for inhibition at 2 µM / inhibition at 20 µM: HIV-1 MOI=1; for inhibition at 20 µM: Human immunodeficiency virus 1, 20 μM compound; for EC50: Human immunodeficiency virus 1, HIV-1 strain MOI=1, GFP positive cells counted after 48 hours. Format: cell-based. The protocol:
The potency of HIV-1 inhibition by a compound was based on its inhibitory effect on viral LTR-activated GFP expression compared with that of compound-free (DMSO) controls. Briefly, TZM-GFP cells were plated at density of 1×10^4 cells per well in a 96-well plate. 24 hours later, media was replaced with increasing concentrations of compound. 24 hours post treatment, cells were exposed to an HIV-1 strain (MOI=1).
(§1) The cytotoxicity of each compound was also determined in TZM-GFP cells. Cells were plated at a density of 1×10^4 cells per well in a 96-well plate and were continuously exposed to increasing concentrations of a compound for 72 hours. The number of viable cells in each well was determined using a Cell Proliferation Kit II (XTT), and 50% cytotoxicity concentration (CC50) values were determined. All the cell-based assays were conducted in duplicate and in at least two independent experiments. For the EC50 and CC50 dose responses, values were plotted in GraphPad Prism 5 and analyzed with the log (inhibitor) vs. normalized response-variable slope equation. Final values were calculated in each independent assay and the average values were determined. Statistical analysis (calculation of standard deviation) was performed by using Microsoft Excel.

Data set [1] can be described thus: Cytotoxicity in TZM-GFP cells (XTT). Format: cell-based. The settings on record: human, 72 hours exposure, XTT. Here is the method: as §1
(In general: Tetrazolium dyes change colour on reduction, which living cells bring about.)

Data set [2] deals with covalently-crosslinked hexameric CA A14C/E45C/W184A/M185A (CA121) (Human immunodeficiency virus type 1 group M subtype B, UniProt P12493, A146C/E177C/M317A/W316A). Description: Thermal shift assay (TSA), CA hexamer stability. The settings on record: compound 20 μM, ΔTm=Tm−T0 vs DMSO. Format: binding, HIV-1.

In general, inhibition refers to how much of the control response was suppressed. A lower inhibition goes with a weak effect. One may read the CC50 as the concentration at which the toxic effect on the cells reaches its halfway point. Read a high CC50 as better tolerance by the cells. Consider `Cc1cccc2c1NC(=O)C2CC(=O)N[C@@H](Cc1ccccc1)C(=O)N(C)c1ccc(Cl)cc1` (stereo partly drawn) [Example 2, (2S)—N-(4-chlorophenyl)-N-methyl-2-(2-(7-methyl-2-oxoindolin-3-yl)acetamido)-3-phenylpropanamide], for which, in the data set with HIV-1, the inhibition at 2 µM is 17% and the inhibition at 20 µM came to 96%. This molecule also had a CC50 at 72 h in data set [1] of about 50 µM. Further, the “TSA ΔTm (° C.)” value in data set [2] is −0.4 °C.
As usually defined, the EC50 is the midpoint of the concentration-response curve. Low values mean greater potency, high ones weaker potency. As for `Cc1cccc2c1NC(=O)C2CC(=O)N[C@@H](Cc1ccccc1)C(=O)N(C)c1cccc(Cl)c1` (stereo partly drawn) [Example 3, (2S)—N-(3-chlorophenyl)-N-methyl-2-(2-(7-methyl-2-oxoindolin-3-yl)acetamido)-3-phenylpropanamide], in the data set with HIV-1, the EC50 amounted to 3.3 ± 0.3 µM. In addition, the CC50 at 72 h in data set [1] was over 100 µM. For the same molecule, the “TSA ΔTm (° C.)” value in data set [2] is −1.7 °C.
For the molecule `Cc1cccc2c1NC(=O)C2CC(=O)N[C@@H](Cc1ccccc1)C(=O)N(C)c1cccc(F)c1` (stereo partly drawn) [Example 4, (2S)—N-(3-fluorophenyl)-N-methyl-2-(2-(7-methyl-2-oxoindolin-3-yl)acetamido)-3-phenylpropanamide], in the data set on HIV-1, 2 µM produced 0% inhibition and the inhibition at 20 µM worked out at 93%. Further, the CC50 at 72 h in data set [1] was over 50 µM. Moreover, the “TSA ΔTm (° C.)” value in data set [2] is −0.9 °C.
On to `Cc1ccc(C)c2c1NC(=O)C2CC(=O)N[C@@H](Cc1ccccc1)C(=O)N(C)c1ccccc1` (stereo partly drawn) [Example 5, (2S)-2-(2-(4,7-dimethyl-2-oxoindolin-3-yl)acetamido)-N-methyl-N,3-diphenylpropanamide], for which a half-maximal effect with HIV-1 (EC50) was put at 4.9 ± 0.3 µM. The same molecule returned a cytotoxic concentration (CC50) at 72 h in data set [1] of over 100 µM. Further, the “TSA ΔTm (° C.)” value in data set [2] is −1.8 °C.
Consider `Cc1ccc(C)c2c1NC(=O)C2CC(=O)N[C@@H](Cc1ccccc1)C(=O)N(C)c1ccc(F)cc1` (stereo partly drawn) [Example 6, (2S)-2-(2-(4,7-dimethyl-2-oxoindolin-3-yl)acetamido)-N-(4-fluorophenyl)-N-methyl-3-phenylpropanamide], for which the concentration giving a half-maximal response (EC50) in the data set on HIV-1 stood at 5.4 ± 0.5 µM. Also, the CC50 at 72 h in data set [1] is over 100 µM. For the same molecule, the “TSA ΔTm (° C.)” value in data set [2] is −1.7 °C.
The matching figures for `Cc1ccc(C)c2c1NC(=O)C2CC(=O)N[C@@H](Cc1ccccc1)C(=O)N(C)c1cccc(F)c1` (stereo partly drawn) [Example 7, (2S)-2-(2-(4,7-dimethyl-2-oxoindolin-3-yl)acetamido)-N-(3-fluorophenyl)-N-methyl-3-phenylpropanamide]: 5.2 ± 0.4 µM, 60 ± 6 µM and −1.8 °C.
The matching figures for `Cc1ccc(C)c2c1NC(=O)C2CC(=O)N[C@@H](Cc1ccccc1)C(=O)N(C)c1ccc(Cl)cc1` (stereo partly drawn) [Example 8, (2S)—N-(4-chlorophenyl)-2-(2-(4,7-dimethyl-2-oxoindolin-3-yl)acetamido)-N-methyl-3-phenylpropanamide]: 2.8 ± 0.1 µM, 63 ± 13 µM and −1.3 °C.
As for `Cc1ccc(C)c2c1NC(=O)C2CC(=O)N[C@@H](Cc1ccccc1)C(=O)N(C)c1cccc(Cl)c1` (stereo partly drawn) [Example 9, (2S)—N-(3-chlorophenyl)-2-(2-(4,7-dimethyl-2-oxoindolin-3-yl)acetamido)-N-methyl-3-phenylpropanamide], the concentration for a half-maximal effect (EC50) with HIV-1 came out at 2.1 ± 0.2 µM. This molecule yielded a half-maximal cytotoxic concentration (CC50) at 72 h in data set [1] of 43 ± 2 µM. Besides, the “TSA ΔTm (° C.)” value in data set [2] was −2.4 °C.
In the data set with HIV-1, `CN(C(=O)[C@H](Cc1ccccc1)NC(=O)Cc1ccc2ccccc2c1)c1ccccc1` [Example 10, (S)—N-methyl-2-(2-(naphthalen-2-yl)acetamido)-N,3-diphenylpropanamide] showed an inhibition at 2 µM of 40% and an inhibition at 20 µM of 98%. This molecule also returned a CC50 at 72 h in data set [1] of under 50 µM. In addition, the “TSA ΔTm (° C.)” value in data set [2] stood at 4.8 °C.
`Cc1ccc(N(C)C(=O)[C@H](Cc2ccccc2)NC(=O)Cc2ccc3ccccc3c2)cc1` [Example 11, (S)—N-methyl-2-(2-(naphthalen-2-yl)acetamido)-3-phenyl-N-(p-tolyl)propanamide] registered a concentration giving a half-maximal response (EC50) in the data set with HIV-1 of 0.99 ± 0.005 µM. The molecule also showed a CC50 at 72 h in data set [1] of under 50 µM. Besides, the “TSA ΔTm (° C.)” value in data set [2] came to 6.4 °C.
